# Laboratory results taken from US20110171134A1, “(6S)-5-METHYLTETRAHYDROFOLIC ACID FOR THERAPY OF TISSUE INJURY” (priority 2008, published 2011).
# How the values were obtained:
# [1] = tested on: dorsal root ganglia (DRG) neurons
# Description: The nerve graft provides a supportive environment for axon growth. Removal of the nerve segment injures the peripheral axons of DRG neurons on one side (the “conditioning” lesion), whereas neurons on the opposite side are unaffected by the peripheral injury (“unconditioned”). At 2 weeks, a fluorescent tracer is injected 1 cm into the graft and is transported to the cell bodies of DRG neurons that are able to extend axons into the graft. The fluorescent tracer is taken up in the regenerated neurons only.
# Sixty four adult male Sprague-Dawley rats (200-300 gm) were subjected to surgery under ketamine/xylazine anesthesia, as previously described (FIG. 1.) The cervical cord was exposed through a C3 laminectomy and dural opening. Using a pair of sharp jeweler's forceps, a well-defined 1 mm-deep injury was made in both posterior columns. A sciatic nerve segment harvested from the left hindlimb then was implanted at the injury site using 10-0 nylon sutures in the pia. The other end of the graft was left to lie freely under the skin.
# Two weeks later, 5 μl of the retrograde tracer Fluorogold was placed into the nerve graft at a distance of 1 cm from the spinal cord. […] Rather, it is picked up solely by axons that have grown into the graft and is transported retrogradely in these axons.
# Twenty four hours later, the animal was deeply anesthetized and perfused through the heart with 4% paraformaldehyde. The L5 dorsal root ganglia (DRG) were removed bilaterally, postfixed, incubated in 30% sucrose overnight, and quick frozen in Histo Prep (TM). Sections were cut at 10 μm with a cryostat, floated on pretreated glass slides, and stored at −80° C.
# Animals were treated with intraperitoneal doses of (6S)-5-methyltetrahydrofolic acid ranging from 10 to 800 μg/kg, starting 3 days before the injury and given daily for 2 weeks.
# Dorsal root ganglion sections were examined under a fluorescence microscope and the number of fluorescently labeled cells was counted (see FIG. 1.B). The same sections were then counterstained with cresyl violet to reveal the cell somas of all neurons in the DRG. Fluorescently labeled cells and total cells were counted in treated and control animals by an observer unaware of the treatment conditions. The percentage of labeled DRG cells in each animal was calculated. To determine neuronal numbers accurately, the method of Abercombie was used, in which only cells with visible nucleoli are counted.
# The Wilcoxon rank-sum test and box-and-whiskers plots were used to compare the different groups.
# [2] = tested on: dorsal root ganglia (DRG) neurons; settings: cited from earlier work
# [3] = regeneration of axons into peripheral nerve grafts after damage to the spinal cord
SMILES,"percentage of conditioned DRG neurons that were fluorescently labeled ([1]; 80 ug/kg daily, 3 days before injury to 2 weeks after, with conditioning peripheral nerve lesion, mean ± SEM, n=13)","mean neurons per ganglion regenerating, treatment combined with peripheral injury ([1]; 80 ug/kg, conditioned DRG) [neurons per ganglion]","spinal regeneration, conditioned animals compared with controls, highest dose ([1]; 800 ug/kg, conditioned)","spinal regeneration, unconditioned group, highest dose ([1]; 800 ug/kg, unconditioned)","regeneration in unconditioned DRG in treated animals (FIG. 2) ([1]; 10-400 g/kg as printed, intraperitoneal daily, all treated groups except 800 ug/kg)","mean labeled neurons per ganglion, unconditioned DRG ([1]; 80 N-g/kg intraperitoneal daily, from 3 days before injury for 2 weeks, absence of peripheral nerve injury, n=13)","percentage of labeled unconditioned DRG neurons ([1]; 80 N-g/kg intraperitoneal daily, absence of peripheral nerve injury, mean ± SEM, n=13)","regeneration of conditioned DRG at doses higher or lower than 80 ug/kg ([1]; conditioned, compared with the 80 ug/kg dose)","axons per ganglion regenerating, treatment without peripheral nerve injury ([1]; optimal dose of 80 ug/kg, unconditioned)","increase in regenerative efficacy [1, 3] [%]","regeneration observed with folic acid ([2]; mean ± SEM, n=15, Iskandar, Ann Neurol. 2004)","increase in regenerative efficacy (folic acid comparison) [2, 3]"
CN1c2c(nc(N)[nH]c2=O)NC[C@@H]1CNc1ccc(C(=O)N[C@@H](CCC(=O)O)C(=O)O)cc1 [(6S)-5-methyltetrahydrofolic acid],30.68%±2.97,980,decreased regeneration,no evidence of spinal regeneration,Measurable regeneration,320 labeled neurons per ganglion,10.25%±2.30,less effective,approximately 319 axons per ganglion,≥ 30,–,–
Nc1nc2ncc(CNc3ccc(C(=O)N[C@@H](CCC(=O)O)C(=O)O)cc3)nc2c(=O)[nH]1 [folic acid],–,–,–,–,–,–,–,–,–,–,16.26%±1.12,approximately 16%
